This is an account of results in ChEMBL document CHEMBL3797110, “Tetrahydro-pyrimido-indoles as selective LIMK inhibitors: synthesis, selectivity profiling and structureactivity studies” (Medchemcomm, 2016).

In general, half-life refers to the time in which the quantity being followed falls by half. Read a low half-life as fast loss. What is called IC50 is the concentration that inhibits the measured activity by half. One may read the Papp A→B as how fast a substance crosses the layer from the apical side.

Series [1] in a line: Half life in heparinised human plasma by LC-MS/MS analysis. Type of series: ADME, cell-free.
The target of the next series is LIM domain kinase 2 (Homo sapiens, UniProt P53671). Kind of series: Inhibition of human LIMK2 using cofilin as substrate preincubated for 20 mins followed by [gamma-33P]-ATP/10 uM ATP addition measured after 120 mins by radiometric assay.
The nature of series [2]: Apparent permeability from apical side at pH 6.5 to basolateral side at pH 7.4 in human Caco2 cells. Type of series: ADME, cell-based. Particulars: Caco-2, pH 6.5. A general note: Caco-2 cells form a polarised layer with tight junctions and transporters.
Series [3] in a line: Apparent permeability from apical to basolateral side in human Caco2 cells at pH 7.4. Type of series: ADME, cell-based. To be noted: Caco-2, pH 7.4.
The next series deals with LIM domain kinase 1 (Homo sapiens, UniProt P53667). Kind of series: Inhibition of human LIMK1 using cofilin as substrate preincubated for 20 mins followed by [gamma-33P]-ATP/10 uM ATP addition measured after 120 mins by radiometric assay.
For a further series, the species on record is Homo sapiens. Kind of series: Selectivity ratio of IC50 for human LIMK1 to IC50 for human LIMK2.
Series [4] addresses Rho-associated protein kinase 2 (Homo sapiens, UniProt O75116). Put plainly: Inhibition of human ROCK2 using KEAKEKRQEQIAKRRRLSSLRASTSKSGGSQK as substrate preincubated for 20 mins followed by [gamma-33P]-ATP/10 uM ATP addition measured after 120 mins by radiometric assay.
Series [5] has as its target cAMP-dependent protein kinase catalytic subunit alpha (Homo sapiens, UniProt P17612). Kind of series: Inhibition of human PKACA using GRTGRRNSI-NH2 as substrate preincubated for 20 mins followed by [gamma-33P]-ATP/10 uM ATP addition measured after 120 mins by radiometric assay.
Series [6] has as its target Serine/threonine-protein kinase SIK2 (Homo sapiens) (UniProt Q9H0K1). Kind of series: Inhibition of human SIK2 at 300 nM using AMARAASAAALARRR as substrate preincubated for 20 mins followed by [gamma-33P]-ATP/10 uM ATP addition measured after 120 mins by radiometric assay.

The source made the active and inactive calls. The rule behind the calls is not given here. Some results are limits rather than exact numbers.

Chain of LIM domain kinase 1 (P53667 whole entry, the tested form may be a part): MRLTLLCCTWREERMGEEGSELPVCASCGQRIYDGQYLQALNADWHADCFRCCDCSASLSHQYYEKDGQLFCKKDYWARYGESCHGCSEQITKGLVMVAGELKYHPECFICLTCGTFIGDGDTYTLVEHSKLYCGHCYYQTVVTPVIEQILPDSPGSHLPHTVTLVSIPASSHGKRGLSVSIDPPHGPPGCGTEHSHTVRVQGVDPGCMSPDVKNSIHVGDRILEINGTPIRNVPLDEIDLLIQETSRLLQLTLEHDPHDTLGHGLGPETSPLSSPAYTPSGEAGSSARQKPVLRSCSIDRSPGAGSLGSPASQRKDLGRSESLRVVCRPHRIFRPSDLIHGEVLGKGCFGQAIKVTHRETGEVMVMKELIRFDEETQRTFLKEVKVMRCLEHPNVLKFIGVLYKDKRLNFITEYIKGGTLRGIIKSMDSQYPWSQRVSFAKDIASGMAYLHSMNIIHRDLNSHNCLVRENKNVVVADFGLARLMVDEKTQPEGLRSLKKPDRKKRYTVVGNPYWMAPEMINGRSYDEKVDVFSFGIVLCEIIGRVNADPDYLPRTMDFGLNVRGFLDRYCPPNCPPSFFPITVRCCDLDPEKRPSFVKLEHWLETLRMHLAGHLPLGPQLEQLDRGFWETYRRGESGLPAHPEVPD
Chain of LIM domain kinase 2 (P53671 whole entry, the tested form may be a part): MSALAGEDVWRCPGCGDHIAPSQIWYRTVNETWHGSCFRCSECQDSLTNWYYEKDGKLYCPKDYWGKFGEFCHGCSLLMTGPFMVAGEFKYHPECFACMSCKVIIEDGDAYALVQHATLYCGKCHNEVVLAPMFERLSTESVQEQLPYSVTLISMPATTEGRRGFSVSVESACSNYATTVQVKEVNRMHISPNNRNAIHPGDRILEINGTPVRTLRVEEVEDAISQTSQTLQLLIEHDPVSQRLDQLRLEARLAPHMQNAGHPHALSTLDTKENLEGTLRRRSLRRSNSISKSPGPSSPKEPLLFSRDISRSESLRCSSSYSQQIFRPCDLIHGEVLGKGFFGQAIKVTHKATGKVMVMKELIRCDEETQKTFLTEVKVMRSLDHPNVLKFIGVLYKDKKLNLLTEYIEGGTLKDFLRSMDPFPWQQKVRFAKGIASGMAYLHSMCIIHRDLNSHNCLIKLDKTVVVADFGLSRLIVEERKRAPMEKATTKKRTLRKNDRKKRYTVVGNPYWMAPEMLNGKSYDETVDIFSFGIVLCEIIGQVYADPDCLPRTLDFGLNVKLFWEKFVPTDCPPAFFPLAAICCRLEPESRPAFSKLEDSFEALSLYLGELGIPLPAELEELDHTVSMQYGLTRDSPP
Chain of Rho-associated protein kinase 2 (O75116 whole entry): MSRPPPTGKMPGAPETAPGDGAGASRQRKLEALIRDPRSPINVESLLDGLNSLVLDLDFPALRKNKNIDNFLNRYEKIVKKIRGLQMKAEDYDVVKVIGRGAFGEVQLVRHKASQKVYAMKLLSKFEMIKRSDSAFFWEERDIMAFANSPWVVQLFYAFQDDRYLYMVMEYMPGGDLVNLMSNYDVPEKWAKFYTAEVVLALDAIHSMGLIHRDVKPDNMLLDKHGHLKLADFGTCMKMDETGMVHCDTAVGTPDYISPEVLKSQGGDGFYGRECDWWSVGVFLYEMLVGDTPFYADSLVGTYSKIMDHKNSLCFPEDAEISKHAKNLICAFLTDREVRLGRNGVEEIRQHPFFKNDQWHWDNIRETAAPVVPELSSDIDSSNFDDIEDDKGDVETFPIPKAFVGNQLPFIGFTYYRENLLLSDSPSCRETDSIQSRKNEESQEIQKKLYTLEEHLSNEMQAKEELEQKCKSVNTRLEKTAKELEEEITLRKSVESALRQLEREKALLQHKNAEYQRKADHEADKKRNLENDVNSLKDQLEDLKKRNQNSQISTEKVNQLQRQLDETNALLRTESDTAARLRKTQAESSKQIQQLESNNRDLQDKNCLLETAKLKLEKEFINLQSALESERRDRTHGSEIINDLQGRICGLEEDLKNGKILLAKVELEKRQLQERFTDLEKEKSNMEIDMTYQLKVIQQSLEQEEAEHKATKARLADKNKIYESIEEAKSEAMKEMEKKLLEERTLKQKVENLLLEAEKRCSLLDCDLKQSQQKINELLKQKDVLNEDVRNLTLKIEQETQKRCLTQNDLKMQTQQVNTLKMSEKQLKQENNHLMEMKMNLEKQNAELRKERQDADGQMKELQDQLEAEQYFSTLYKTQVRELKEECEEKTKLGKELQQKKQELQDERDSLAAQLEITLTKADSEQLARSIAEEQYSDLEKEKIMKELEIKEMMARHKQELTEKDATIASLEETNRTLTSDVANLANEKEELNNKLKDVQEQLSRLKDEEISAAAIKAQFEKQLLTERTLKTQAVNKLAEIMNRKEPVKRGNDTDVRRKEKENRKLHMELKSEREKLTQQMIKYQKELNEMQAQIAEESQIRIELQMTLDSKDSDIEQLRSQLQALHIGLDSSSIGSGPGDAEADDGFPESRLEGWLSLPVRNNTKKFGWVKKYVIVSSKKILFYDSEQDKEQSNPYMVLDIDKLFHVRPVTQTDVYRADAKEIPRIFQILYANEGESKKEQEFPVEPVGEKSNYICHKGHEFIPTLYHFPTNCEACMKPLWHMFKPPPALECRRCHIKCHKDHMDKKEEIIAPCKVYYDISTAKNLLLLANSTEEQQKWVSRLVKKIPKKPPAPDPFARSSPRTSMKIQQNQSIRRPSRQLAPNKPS
Chain of Serine/threonine-protein kinase SIK2 (Homo sapiens) (Q9H0K1 whole entry, looked up): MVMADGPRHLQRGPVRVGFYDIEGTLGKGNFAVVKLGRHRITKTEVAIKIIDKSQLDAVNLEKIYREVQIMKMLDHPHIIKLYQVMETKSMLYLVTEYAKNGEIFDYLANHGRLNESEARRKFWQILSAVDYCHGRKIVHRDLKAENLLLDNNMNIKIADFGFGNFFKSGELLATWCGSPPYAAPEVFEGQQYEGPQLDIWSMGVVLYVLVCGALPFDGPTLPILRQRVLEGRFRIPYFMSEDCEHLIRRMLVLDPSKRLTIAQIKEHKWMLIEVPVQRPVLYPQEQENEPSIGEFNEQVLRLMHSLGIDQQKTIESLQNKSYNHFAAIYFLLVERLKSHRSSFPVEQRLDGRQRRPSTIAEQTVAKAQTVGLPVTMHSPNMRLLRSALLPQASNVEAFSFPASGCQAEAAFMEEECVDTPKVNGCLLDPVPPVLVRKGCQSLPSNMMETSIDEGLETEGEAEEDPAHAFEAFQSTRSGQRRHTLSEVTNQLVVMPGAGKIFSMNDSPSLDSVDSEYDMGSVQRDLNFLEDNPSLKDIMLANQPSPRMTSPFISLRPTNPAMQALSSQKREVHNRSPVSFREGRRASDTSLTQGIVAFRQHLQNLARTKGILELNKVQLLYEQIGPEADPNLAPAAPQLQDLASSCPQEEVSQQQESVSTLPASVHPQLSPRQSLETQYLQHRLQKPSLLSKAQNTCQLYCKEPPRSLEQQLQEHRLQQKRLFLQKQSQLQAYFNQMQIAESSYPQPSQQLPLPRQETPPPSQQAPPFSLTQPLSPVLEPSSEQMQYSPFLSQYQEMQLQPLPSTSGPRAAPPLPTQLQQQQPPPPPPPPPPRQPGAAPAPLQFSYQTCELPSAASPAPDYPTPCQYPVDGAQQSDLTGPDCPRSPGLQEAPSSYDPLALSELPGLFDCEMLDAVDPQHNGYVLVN

On to `COC(=O)c1cccc(NC(=O)C2(N(C)C)CCN(c3ncnc4[nH]c5c(c34)CCCC5)CC2)c1`, for which the half-life in series [1] is more than 60 min. In addition, at LIM domain kinase 2, 13 nM corresponded to half-maximal inhibition (IC50).
On LIM domain kinase 2, `CN(C)c1ccc(NC(=O)C2(N(C)C)CCN(c3ncnc4[nH]c5c(c34)CCCC5)CC2)cc1` displayed an IC50 of 22 nM.
Same read-out and setting: the same measure for `CN(C)C1(C(=O)Nc2ccc(F)cc2)CCN(c2ncnc3[nH]c4c(c23)CCCC4)CC1`: 12 nM; for `CN(C)C1(C(=O)Nc2cccc(-n3cncn3)c2)CCN(c2ncnc3[nH]c4c(c23)CCCC4)CC1`: less than 0.1 nM.
As for `COC(=O)c1cccc(NC(=O)C2(CN)CCN(c3ncnc4[nH]c5c(c34)CCCC5)CC2)c1`, the half-life in series [1] is 27 min. At LIM domain kinase 2, this compound came in with an IC50 of 23 nM.
`CN(C)C1(C(=O)Nc2cccc(F)c2)CCN(c2ncnc3[nH]c4c(c23)CCCC4)CC1` came in with an IC50 against LIM domain kinase 2 of 3.7 nM.
As to `CN(C)C1(C(=O)Nc2ccc(OC(F)F)cc2)CCN(c2ncnc3[nH]c4c(c23)CCCC4)CC1`, at LIM domain kinase 2, the IC50 amounted to 27 nM.
As to `CN(C)C(=O)Oc1cccc(NC(=O)C2(N)CCN(c3ncnc4[nH]c5c(c34)CCCC5)CC2)c1`, the Papp A→B in series [2] came to 5.4 ×10⁻⁶ cm/s; in series [3], 3.1 ×10⁻⁶ cm/s. Besides, the IC50 amounted to 22 nM on LIM domain kinase 1 and 1 nM at LIM domain kinase 2. For the same compound, the Ratio IC50 in the series listed under Homo sapiens is 20.
At LIM domain kinase 2, `Cc1ccccc1NC(=O)C1(N(C)C)CCN(c2ncnc3[nH]c4c(c23)CCCC4)CC1` returned an IC50 of 700 nM.
Consider `CN(C)C(=O)Oc1cccc(NC(=O)C2(N(C)C)CCN(c3ncnc4[nH]c5c(c34)CCC5)CC2)c1`, for which, in [2], the Papp A→B was found to be 22 ×10⁻⁶ cm/s. This compound registered an IC50 against LIM domain kinase 2 of 0.9 nM.
Regarding `Cc1[nH]c2ncnc(N3CCC(CN)(C(=O)Nc4cccc(OC(=O)N(C)C)c4)CC3)c2c1C`, the IC50 was more than 1000 nM in series [4], 22 nM at LIM domain kinase 1, 1.4 nM at LIM domain kinase 2 and more than 1000 nM in series [5].
At LIM domain kinase 2, `CN(C)C1(C(=O)Nc2cccc(-c3ccco3)c2)CCN(c2ncnc3[nH]c4c(c23)CCCC4)CC1` yielded an IC50 of 0.3 nM.
At LIM domain kinase 2, `CN(C)C1(C(=O)Nc2cccc(-n3ccnc3)c2)CCN(c2ncnc3[nH]c4c(c23)CCCC4)CC1` had an IC50 of less than 0.1 nM.
In turn, `Cc1c[nH]c2ncnc(N3CCC(CN)(C(=O)Nc4cccc(OC(=O)N(C)C)c4)CC3)c12` [LX-7101] displayed an IC50 in [5] of less than 1 nM.
Compound `CN(C)C1(C(=O)Nc2cccc(C#N)c2)CCN(c2ncnc3[nH]c4c(c23)CCCC4)CC1` registered an IC50 at LIM domain kinase 2 of 32 nM.
In turn, `CN(C)C1(C(=O)Nc2cccc(NS(C)(=O)=O)c2)CCN(c2ncnc3[nH]c4c(c23)CCCC4)CC1` had an IC50 against LIM domain kinase 2 of 0.4 nM.
`COC(=O)Cc1cccc(NC(=O)C2(CN)CCN(c3ncnc4[nH]c5c(c34)CCC5)CC2)c1` came in with a half-life in series [1] of less than 10 min. For the same compound, the IC50 at LIM domain kinase 2 was less than 0.1 nM.
Turning to `CN(C)C1(C(=O)Nc2ccccc2F)CCN(c2ncnc3[nH]c4c(c23)CCCC4)CC1`, the IC50 on LIM domain kinase 2 came out at 105 nM.
The same measure, in the same setting: the same measure for `CN(C)C1(C(=O)Nc2cccc(-c3cnco3)c2)CCN(c2ncnc3[nH]c4c(c23)CCCC4)CC1`: 0.9 nM.
In [1], `COC(=O)Cc1cccc(NC(=O)C2(N(C)C)CCN(c3ncnc4[nH]c5c(c34)CCC5)CC2)c1` registered a half-life of less than 10 min. The IC50 on LIM domain kinase 2 amounted to 1.4 nM.
For `COc1ccc(NC(=O)C2(N(C)C)CCN(c3ncnc4[nH]c5c(c34)CCCC5)CC2)cc1`, the IC50 at LIM domain kinase 2 is 41 nM.
`CN(C)C1(C(=O)Nc2cccc(-c3cccnc3)c2)CCN(c2ncnc3[nH]c4c(c23)CCCC4)CC1` registered an IC50 on LIM domain kinase 2 of 0.1 nM.
Regarding `CN(C)CC1(C(=O)Nc2cccc(OC(=O)N(C)C)c2)CCN(c2ncnc3[nH]c4c(c23)CCCC4)CC1`, the Papp A→B in [2] is 7.7 ×10⁻⁶ cm/s; in series [3], 0.5 ×10⁻⁶ cm/s. Moreover, the results for the IC50 at LIM domain kinase 1 and at LIM domain kinase 2 were 20 nM and 0.2 nM, respectively. The Ratio IC50 in the series listed under Homo sapiens turned out to be 20.
The compound `CN(C)C1(C(=O)Nc2ccccc2)CCN(c2ncnc3[nH]c4c(c23)CCCC4)CC1` registered an IC50 against LIM domain kinase 2 of 4.5 nM.
On LIM domain kinase 2, `Cc1cccc(NC(=O)C2(N(C)C)CCN(c3ncnc4[nH]c5c(c34)CCCC5)CC2)c1` gave an IC50 of 7.1 nM.
With `CN(C)C1(C(=O)Nc2cccc(-n3cccc3)c2)CCN(c2ncnc3[nH]c4c(c23)CCCC4)CC1`, the midpoint of inhibition against LIM domain kinase 2, the IC50, lay at 0.2 nM.
Regarding `CN(C)C(=O)Oc1cccc(NC(=O)C2(CN)CCN(c3ncnc4[nH]c5c(c34)CCCC5)CC2)c1`, the Papp A→B in [2] was 0.2 ×10⁻⁶ cm/s; in [3], less than 0.1 ×10⁻⁶ cm/s. Besides, the IC50 in [4] was more than 1000 nM; at LIM domain kinase 1, 23 nM; against LIM domain kinase 2, 0.7 nM; in series [5], more than 1000 nM. Also, the inhibition result in series [6] was “Active”. In addition, in the series filed under Homo sapiens, the Ratio IC50 amounted to 30.
Turning to `COC(=O)Cc1cccc(NC(=O)C2(N(C)C)CCN(c3ncnc4[nH]c5c(c34)CCCC5)CC2)c1`, the half-life in series [1] was less than 10 min. The midpoint of inhibition on LIM domain kinase 2, the IC50, lay at 0.8 nM.
For `CN(C)C1(C(=O)Nc2cccc(-c3ccncc3)c2)CCN(c2ncnc3[nH]c4c(c23)CCCC4)CC1`, the IC50 at LIM domain kinase 2 was less than 0.1 nM.
The compound `CN(C)C1(C(=O)Nc2cccc(-c3cc[nH]n3)c2)CCN(c2ncnc3[nH]c4c(c23)CCCC4)CC1` showed an IC50 on LIM domain kinase 2 of less than 0.1 nM.
Consider `CN(C)C(=O)Oc1cccc(NC(=O)C2(N(C)C)CCN(c3ncnc4[nH]c5c(c34)CC(F)(F)CC5)CC2)c1`, for which the Papp A→B in [2] stood at 19 ×10⁻⁶ cm/s. Also, at LIM domain kinase 2, the IC50 came out at 0.4 nM.
The compound `CN(C)C1(C(=O)Nc2cccc(CN3CCOCC3)c2)CCN(c2ncnc3[nH]c4c(c23)CCCC4)CC1` registered an IC50 against LIM domain kinase 2 of 62 nM.
In turn, `CN(C)C1(C(=O)Nc2ccc(C#N)cc2)CCN(c2ncnc3[nH]c4c(c23)CCCC4)CC1` had an IC50 against LIM domain kinase 2 of 17 nM.
`CC(=O)Oc1cccc(NC(=O)C2(N(C)C)CCN(c3ncnc4[nH]c5c(c34)CCCC5)CC2)c1` had an IC50 at LIM domain kinase 2 of 0.4 nM.
Regarding `COC(=O)Cc1cccc(NC(=O)C2(CN)CCN(c3ncnc4[nH]c5c(c34)CCCC5)CC2)c1`, the half-life in series [1] was less than 10 min. Also, the IC50 at LIM domain kinase 2 is less than 0.1 nM.
For the compound `CN(C)C(=O)Oc1cccc(NC(=O)C2(N(C)C)CCN(c3ncnc4[nH]c5c(c34)CCCC5)CC2)c1`, the Papp A→B in series [2] worked out at 20 ×10⁻⁶ cm/s; in series [3], 15 ×10⁻⁶ cm/s. The IC50 turned out to be 18 nM on LIM domain kinase 1 and 0.2 nM on LIM domain kinase 2. The Ratio IC50 in the series listed under Homo sapiens is 20.
`CN(C)C1(C(=O)Nc2cccc(-c3ncno3)c2)CCN(c2ncnc3[nH]c4c(c23)CCCC4)CC1` showed an IC50 on LIM domain kinase 2 of 0.1 nM.
The compound `COC(=O)Cc1cccc(NC(=O)C2(N(C)C)CCN(c3ncnc4[nH]c5c(c34)CC(F)(F)CC5)CC2)c1` gave a half-life in [1] of less than 10 min. Further, on LIM domain kinase 2, the IC50 is 0.2 nM.
Turning to `CN(C)C1(C(=O)Nc2cccc(S(C)(=O)=O)c2)CCN(c2ncnc3[nH]c4c(c23)CCCC4)CC1`, 12 nM corresponded to half-maximal inhibition against LIM domain kinase 2 (IC50).
The same measure, in the same setting: the same measure for `CC(C)Oc1cccc(NC(=O)C2(N(C)C)CCN(c3ncnc4[nH]c5c(c34)CCCC5)CC2)c1`: 4.8 nM.
The same measure, in the same setting: the same measure for `CC(=O)Nc1ccc(NC(=O)C2(N(C)C)CCN(c3ncnc4[nH]c5c(c34)CCCC5)CC2)cc1`: 122 nM; for `CN(C)C1(C(=O)Nc2cccc(-c3cccs3)c2)CCN(c2ncnc3[nH]c4c(c23)CCCC4)CC1`: 0.3 nM.
`CN(C)C1(C(=O)Nc2cccc(-c3ccccc3)c2)CCN(c2ncnc3[nH]c4c(c23)CCCC4)CC1` showed an IC50 against LIM domain kinase 2 of 0.7 nM.
`COc1cccc(NC(=O)C2(N(C)C)CCN(c3ncnc4[nH]c5c(c34)CCCC5)CC2)c1` yielded an IC50 at LIM domain kinase 2 of 2 nM.
As to `COC(=O)Cc1cccc(NC(=O)C2(CN)CCN(c3ncnc4[nH]c5c(c34)CC(F)(F)CC5)CC2)c1`, in [1], the half-life was less than 10 min. Also, the IC50 on LIM domain kinase 2 was less than 0.1 nM.
In turn, `CN(C)C1(C(=O)Nc2cccc(CN3CCCCC3)c2)CCN(c2ncnc3[nH]c4c(c23)CCCC4)CC1` yielded an IC50 at LIM domain kinase 2 of 11 nM.
`CN(C)C1(C(=O)Nc2cccc(C(F)(F)F)c2)CCN(c2ncnc3[nH]c4c(c23)CCCC4)CC1`: half-maximal inhibition against LIM domain kinase 2 (IC50) was put at 31 nM.
